ChEMBL document CHEMBL3885861, “Open TG-GATES”

Species on record: Rattus norvegicus
Assay: Open TG-GATES - Regimen: Single
Type: toxicity, organism-based, Sprague-Dawley
Set-up: regimen Single, gender Male, age 6 weeks
Conditions: in vivo, po, 0 mg/kg, route gavage, dose level Control; for APTT / Bas / Eos / Fbg / Hb / Ht / Lym / MCH / MCHC / MCV / Mono / Neu / PT / Plat / RBC / Ret / WBC: tissue Blood; for KIDNEY_L / KIDNEY_R / KIDNEY_TOTAL: tissue Kidney; for LIVER: tissue Liver; for A/G / ALP / ALT / AST / BUN / CRE / Ca / Cl / DBIL / GLC / IP / K / LDH / Na / PL / RALB / TBIL / TC / TG / TP / gamma-GTP: tissue Plasma

CCN(CC)N=O [N-NITROSODIETHYLAMINE]
TERMINAL_BW (3 h): 221 g
APTT (3 h): 19.6 s
Bas (3 h): 0.4%
Eos (3 h): 1%
Fbg (3 h): 223 mg/dL
Hb (3 h): 13.7 g/dL
Ht (3 h): 40%
Lym (3 h): 77.8%
MCH (3 h): 21.5 pg
MCHC (3 h): 34.1%
MCV (3 h): 63 fL
Mono (3 h): 2.2%
Neu (3 h): 18%
PT (3 h): 12 s
Plat (3 h): 127.6 x10_4/uL
RBC (3 h): 635.6 x10_4/ul
Ret (3 h): 7.2%
WBC (3 h): 66.1 x10_2/uL
KIDNEY_L (3 h): 1 g
KIDNEY_R (3 h): 0.9 g
KIDNEY_TOTAL (3 h): 1.9 g
LIVER (3 h): 9.5 g
A/G (3 h): 1.6
ALP (3 h): 1051 IU/L
ALT (3 h): 37.4 IU/L
AST (3 h): 68.4 IU/L
BUN (3 h): 10 mg/dL
CRE (3 h): 0.4 mg/dL
Ca (3 h): 10.3 mg/dL
Cl (3 h): 102 meq/L
DBIL (3 h): 0.07 mg/dL
GLC (3 h): 194.2 mg/dL
IP (3 h): 9 mg/dL
K (3 h): 3.5 meq/L
LDH (3 h): 169.8 IU/L
Na (3 h): 140.8 meq/L
PL (3 h): 132.8 mg/dL
RALB (3 h): 3.4 g/dL
TBIL (3 h): 0.1 mg/dL
TC (3 h): 79.4 mg/dL
TG (3 h): 42.4 mg/dL
TP (3 h): 5.5 g/dL
gamma-GTP (3 h): 1 IU/L
TERMINAL_BW (6 h): 223.5 g
APTT (6 h): 20.6 s
Bas (6 h): 0.2%
Eos (6 h): 1%
Fbg (6 h): 218 mg/dL
Hb (6 h): 13.5 g/dL
Ht (6 h): 39.5%
Lym (6 h): 79.6%
MCH (6 h): 21.4 pg
MCHC (6 h): 34.3%
MCV (6 h): 62.5 fL
Mono (6 h): 2.4%
Neu (6 h): 16%
PT (6 h): 12 s
Plat (6 h): 130.4 x10_4/uL
RBC (6 h): 631.8 x10_4/ul
Ret (6 h): 6.9%
WBC (6 h): 81.9 x10_2/uL
KIDNEY_L (6 h): 1 g
KIDNEY_R (6 h): 1 g
KIDNEY_TOTAL (6 h): 2 g
LIVER (6 h): 9.9 g
A/G (6 h): 1.6
ALP (6 h): 946.2 IU/L
ALT (6 h): 34.2 IU/L
AST (6 h): 72.4 IU/L
BUN (6 h): 13.6 mg/dL
CRE (6 h): 0.4 mg/dL
Ca (6 h): 10.3 mg/dL
Cl (6 h): 102.8 meq/L
DBIL (6 h): 0.076 mg/dL
GLC (6 h): 201.2 mg/dL
IP (6 h): 7.8 mg/dL
K (6 h): 3.6 meq/L
LDH (6 h): 193 IU/L
Na (6 h): 140.8 meq/L
PL (6 h): 141.6 mg/dL
RALB (6 h): 3.4 g/dL
TBIL (6 h): 0.1 mg/dL
TC (6 h): 82.2 mg/dL
TG (6 h): 54.4 mg/dL
TP (6 h): 5.5 g/dL
gamma-GTP (6 h): 1.4 IU/L
TERMINAL_BW (9 h): 228.4 g
APTT (9 h): 18.5 s
Bas (9 h): 0.8%
Eos (9 h): 1.2%
Fbg (9 h): 230.8 mg/dL
Hb (9 h): 13.7 g/dL
Ht (9 h): 39.7%
Lym (9 h): 75.4%
MCH (9 h): 21.6 pg
MCHC (9 h): 34.5%
MCV (9 h): 62.5 fL
Mono (9 h): 2.6%
Neu (9 h): 19.2%
PT (9 h): 12 s
Plat (9 h): 125.1 x10_4/uL
RBC (9 h): 636 x10_4/ul
Ret (9 h): 7.1%
WBC (9 h): 92.6 x10_2/uL
KIDNEY_L (9 h): 1 g
KIDNEY_R (9 h): 1 g
KIDNEY_TOTAL (9 h): 1.9 g
LIVER (9 h): 10.1 g
A/G (9 h): 1.6
ALP (9 h): 875.4 IU/L
ALT (9 h): 37.8 IU/L
AST (9 h): 69 IU/L
BUN (9 h): 13.8 mg/dL
CRE (9 h): 0.4 mg/dL
Ca (9 h): 10.4 mg/dL
Cl (9 h): 103 meq/L
DBIL (9 h): 0.08 mg/dL
GLC (9 h): 206.4 mg/dL
IP (9 h): 8 mg/dL
K (9 h): 3.8 meq/L
LDH (9 h): 196.4 IU/L
Na (9 h): 140.6 meq/L
PL (9 h): 141.6 mg/dL
RALB (9 h): 3.4 g/dL
TBIL (9 h): 0.1 mg/dL
TC (9 h): 84.2 mg/dL
TG (9 h): 56.8 mg/dL
TP (9 h): 5.6 g/dL
gamma-GTP (9 h): 1.4 IU/L
TERMINAL_BW (24 h): 229.8 g
APTT (24 h): 18.9 s
Bas (24 h): 0%
Eos (24 h): 1.2%
Fbg (24 h): 226.2 mg/dL
Hb (24 h): 13.5 g/dL
Ht (24 h): 39.6%
Lym (24 h): 82.6%
MCH (24 h): 21.5 pg
MCHC (24 h): 34.1%
MCV (24 h): 63.2 fL
Mono (24 h): 1.8%
Neu (24 h): 13.8%
PT (24 h): 11.7 s
Plat (24 h): 128.8 x10_4/uL
RBC (24 h): 627.2 x10_4/ul
Ret (24 h): 6.6%
WBC (24 h): 85.1 x10_2/uL
KIDNEY_L (24 h): 1.1 g
KIDNEY_R (24 h): 1 g
KIDNEY_TOTAL (24 h): 2.1 g
LIVER (24 h): 10.2 g
A/G (24 h): 1.6
ALP (24 h): 1035 IU/L
ALT (24 h): 37.8 IU/L
AST (24 h): 63.6 IU/L
BUN (24 h): 14 mg/dL
CRE (24 h): 0.4 mg/dL
Ca (24 h): 10.5 mg/dL
Cl (24 h): 103.6 meq/L
DBIL (24 h): 0.07 mg/dL
GLC (24 h): 208 mg/dL
IP (24 h): 9.5 mg/dL
K (24 h): 3.7 meq/L
LDH (24 h): 190.6 IU/L
Na (24 h): 141 meq/L
PL (24 h): 150.6 mg/dL
RALB (24 h): 3.3 g/dL
TBIL (24 h): 0.1 mg/dL
TC (24 h): 86.6 mg/dL
TG (24 h): 57.8 mg/dL
TP (24 h): 5.4 g/dL
gamma-GTP (24 h): 1 IU/L
